Test results from PubChem BioAssay AID2060903 (Molecular Pharmacology Branch, DTP, NCI, 2025).

Test system: 377384-186-R-J1-PDC complex spheroid viability
Assay: Anticancer human tumor 377384-186-R-J1-PDC patient-derived pancreatic carcinoma cell line growth inhibition [RAS]
Details: for viability, T/C: stronger effect = lower value
Description: RAS pathway inhibitors in Combinations in Complex Spheroids
A high-throughput screen of multi-cell type tumor spheroids was designed to identify active combinations of RAS pathway inhibitors and targeted small molecules. Complex spheroids include a stromal component modeled by human endothelial cells (HUVEC) and fibroblasts modeled by human mesenchymal stem cells (MSCs). The concentration ranges selected for each drug and investigational agent were based upon clinically achievable concentrations if the clinical Cmax of the agent was known.
Compounds. The drugs and investigational agents: abemaciclib (NSC768073), cobimetinib (NSC768068), divarasib (GDC6063, NSC841802), docetaxel (NSC628503), GDC-1971 (RLY-1971, NSC841576), gemcitabine (NSC613327), inavolisib (NSC800729), ipatasertib (NSC767898), KB-0742 (NSC834161), MRTX-1133 (NSC836407), osimertinib (NSC779217), RMC-4630 (NSC839698), RMC-6236 (NSC851965), RMC-6291 (NSC852671), Ro-3306 (NSC812927), sapanisertib (NSC764658), SN-38 (NSC673596), staurosporine (NSC755774), SY5609 (NSC837396), and tovorafenib (DAY101, NSC766906), were obtained from the National Cancer Institute (NCI) Developmental Therapeutics Program Chemical Repository. The FDA-approved anticancer drug set is available from the NCI Developmental Therapeutics Program. […] The stock solutions were prepared in dimethyl sulfoxide (DMSO, Sigma-Aldrich, St. Louis, MO, cat. D2650) at 800-fold the tested concentration and stored at -70 degrees C prior to their use. All drugs and investigational agents were tested over a range starting from a high concentration at or near the clinical Cmax and decreasing in half-log increments. If the clinical Cmax for an agent had not been determined, the highest concentration tested was 10 microM.
Cell Culture. All cells were maintained in an incubator at 37 degrees C and 5% CO2 with 95% humidity. The PDC lines were cultured according to standard operating procedures established by the NCI PDMR. All PDCs were thawed and cultured in Matrigel-coated flasks prepared with a working solution of 1X Ham's F-12 nutrient mix, without supplementation (Invitrogen, Waltham, MA, cat. 11765054), 100 U/mL penicillin-streptomycin (Invitrogen, cat. 15140122), and 2.5% Matrigel (Corning Inc., Corning, NY, cat. 354248) for the first three passages. The 362531-283-R-J2-PDC and 782815-120-R-J1-PDC lines were cultured in 6C/Colon 1B media, which includes advanced DMEM/F-12 (Thermo Fisher Scientific, cat. 12634028), 10 mM HEPES (Thermo Fisher Scientific, cat. 15630080), 1X GlutaMAX supplement (Thermo Fisher Scientific, cat. 35050061), 0.1 mg/mL primocin (InvivoGen, San Diego, CA, cat. ant-pm-2), 10% defined fetal bovine serum, heat inactivated (HyClone Laboratories Inc., Logan, UT, cat. SH30070.03HI), 50% L-WRN conditioned media (ATCC, cat. CRL-3276), 1.25 mM N-Acetyl-L-cysteine (Sigma-Aldrich, cat. A9165), 10 mM nicotinamide (Sigma-Aldrich, cat. N0636), 1X B-27 supplement (Thermo Fisher Scientific, cat. 17504044), 1X N-2 supplement (Thermo Fisher Scientific, cat. 17502048), 50 ng/mL human EGF (Thermo Fisher Scientific, cat. PHG0311), and 10 microM Y-27632 dihydrochloride (Tocris Bioscience, cat. 1254). The K12877-001-R-J1-PDC line was cultured in 6I media, which includes all 6C/Colon 1B media plus 10 ng/mL human FGF-10 (PeproTech, cat. 100-26), 1 ng/mL human FGF-2 (PeproTech, cat. 100-18B), 1 µM prostaglandin E2 (Tocris Bioscience, cat. 2296), […] hydrocortisone (Sigma-Aldrich, cat. H4001), and […] bovine insulin (Sigma-Aldrich, cat. I6634). The K86415-001-R-J1-PDC line was cultured in 6D media, which includes all 6C/Colon 1B media components minus the L-WRN conditioned media. The 485176-168-R4-J1-PDC was cultured in PANC media, which includes all 6C/Colon 1B media plus 100 ng/mL human FGF-10 (PeproTech, cat. 100-26), 500 nM SB-431542 (Selleckchem, cat. S1067), and 10 nM gastrin (Tocris Bioscience, cat. 3006). […]
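Further: spheroids exposed to compounds for seven days before readout.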

Compound: Cc1nc(N2CCC3(CC2)COC(C)C3N)c(CO)nc1Sc1ccnc(N)c1Cl (centres undefined) + CCn1c(-c2cc(N3CCN(C)CC3)cnc2C(C)OC)c2c3cc(ccc31)-c1csc(n1)CC(NC(=O)C1CC1C)C(=O)N1CCCC(N1)C(=O)OCC(C)(C)C2
- IC50 (curve of first compound, second compound 0.000949 µM): < 31.6 nM
- IC50 (curve of first compound, second compound 0.003 µM): < 31.6 nM
- IC50 (curve of first compound, second compound 0.00949 µM): < 31.6 nM
- IC50 (curve of first compound, second compound 0.03 µM): < 31.6 nM
- IC50 (curve of first compound, second compound 0.0949 µM): < 31.6 nM
- IC50 (curve of first compound, second compound 0.3 µM): < 31.6 nM
- viability, T/C (second compound 0.000949 µM, first compound 0.0316 µM): 28.9%
- viability, T/C (second compound 0.000949 µM, first compound 0.1 µM): 15.6%
- viability, T/C (second compound 0.000949 µM, first compound 0.316 µM): 5.63%
- viability, T/C (second compound 0.000949 µM, first compound 1 µM): 3.93%
- viability, T/C (second compound 0.000949 µM, first compound 3.16 µM): 2.14%
- viability, T/C (second compound 0.000949 µM, first compound 10 µM): 1.26%
- viability, T/C (second compound 0.003 µM, first compound 0.0316 µM): 5.98%
- viability, T/C (second compound 0.003 µM, first compound 0.1 µM): 3.1%
- viability, T/C (second compound 0.003 µM, first compound 0.316 µM): 1.7%
- viability, T/C (second compound 0.003 µM, first compound 1 µM): 1.39%
- viability, T/C (second compound 0.003 µM, first compound 3.16 µM): 0.72%
- viability, T/C (second compound 0.003 µM, first compound 10 µM): 0.71%
- viability, T/C (second compound 0.00949 µM, first compound 0.0316 µM): 2.71%
- viability, T/C (second compound 0.00949 µM, first compound 0.1 µM): 2.19%
- viability, T/C (second compound 0.00949 µM, first compound 0.316 µM): 1.28%
- viability, T/C (second compound 0.00949 µM, first compound 1 µM): 1.66%
- viability, T/C (second compound 0.00949 µM, first compound 3.16 µM): 0.87%
- viability, T/C (second compound 0.00949 µM, first compound 10 µM): 0.71%
- viability, T/C (second compound 0.03 µM, first compound 0.0316 µM): 2.03%
- viability, T/C (second compound 0.03 µM, first compound 0.1 µM): 1.9%
- viability, T/C (second compound 0.03 µM, first compound 0.316 µM): 1.46%
- viability, T/C (second compound 0.03 µM, first compound 1 µM): 1.09%
- viability, T/C (second compound 0.03 µM, first compound 3.16 µM): 0.71%
- viability, T/C (second compound 0.03 µM, first compound 10 µM): 0.28%
- viability, T/C (second compound 0.0949 µM, first compound 0.0316 µM): 1.82%
- viability, T/C (second compound 0.0949 µM, first compound 0.1 µM): 1.54%
- viability, T/C (second compound 0.0949 µM, first compound 0.316 µM): 1.69%
- viability, T/C (second compound 0.0949 µM, first compound 1 µM): 0.9%
- viability, T/C (second compound 0.0949 µM, first compound 3.16 µM): 0.56%
- viability, T/C (second compound 0.0949 µM, first compound 10 µM): 0.2%
- viability, T/C (second compound 0.3 µM, first compound 0.0316 µM): 1.8%
- viability, T/C (second compound 0.3 µM, first compound 0.1 µM): 1.68%
- viability, T/C (second compound 0.3 µM, first compound 0.316 µM): 1.39%
- viability, T/C (second compound 0.3 µM, first compound 1 µM): 1.08%
- viability, T/C (second compound 0.3 µM, first compound 3.16 µM): 0.69%
- viability, T/C (second compound 0.3 µM, first compound 10 µM): 0.21%

Compound: CCc1c2c(nc3ccc(O)cc13)-c1cc3c(c(=O)n1C2)COC(=O)[C@]3(O)CC
- viability, T/C (compound 0.000949 µM): 69.8% [middle of 4 runs]
- viability, T/C (compound 0.003 µM): 35% [middle of 4 runs]
- viability, T/C (compound 0.00949 µM): 16.7% [middle of 4 runs]
- viability, T/C (compound 0.03 µM): 7.4% [middle of 4 runs]
- viability, T/C (compound 0.0949 µM): 2.65% [middle of 4 runs]
- viability, T/C (compound 0.3 µM): 2.02% [middle of 4 runs]
- IC50 (curve of compound): 1.8 nM [middle of 4 runs]
